{
  "source": "ChEMBL document CHEMBL1150324",
  "about": "“Support vector machines classification of hERG liabilities based on atom types” (Bioorg Med Chem, 2008)",
  "key": {"[1]": {"target": "Voltage-gated inwardly rectifying potassium channel KCNH2 (Homo sapiens, UniProt Q12809)", "sequence (Q12809 whole entry)": "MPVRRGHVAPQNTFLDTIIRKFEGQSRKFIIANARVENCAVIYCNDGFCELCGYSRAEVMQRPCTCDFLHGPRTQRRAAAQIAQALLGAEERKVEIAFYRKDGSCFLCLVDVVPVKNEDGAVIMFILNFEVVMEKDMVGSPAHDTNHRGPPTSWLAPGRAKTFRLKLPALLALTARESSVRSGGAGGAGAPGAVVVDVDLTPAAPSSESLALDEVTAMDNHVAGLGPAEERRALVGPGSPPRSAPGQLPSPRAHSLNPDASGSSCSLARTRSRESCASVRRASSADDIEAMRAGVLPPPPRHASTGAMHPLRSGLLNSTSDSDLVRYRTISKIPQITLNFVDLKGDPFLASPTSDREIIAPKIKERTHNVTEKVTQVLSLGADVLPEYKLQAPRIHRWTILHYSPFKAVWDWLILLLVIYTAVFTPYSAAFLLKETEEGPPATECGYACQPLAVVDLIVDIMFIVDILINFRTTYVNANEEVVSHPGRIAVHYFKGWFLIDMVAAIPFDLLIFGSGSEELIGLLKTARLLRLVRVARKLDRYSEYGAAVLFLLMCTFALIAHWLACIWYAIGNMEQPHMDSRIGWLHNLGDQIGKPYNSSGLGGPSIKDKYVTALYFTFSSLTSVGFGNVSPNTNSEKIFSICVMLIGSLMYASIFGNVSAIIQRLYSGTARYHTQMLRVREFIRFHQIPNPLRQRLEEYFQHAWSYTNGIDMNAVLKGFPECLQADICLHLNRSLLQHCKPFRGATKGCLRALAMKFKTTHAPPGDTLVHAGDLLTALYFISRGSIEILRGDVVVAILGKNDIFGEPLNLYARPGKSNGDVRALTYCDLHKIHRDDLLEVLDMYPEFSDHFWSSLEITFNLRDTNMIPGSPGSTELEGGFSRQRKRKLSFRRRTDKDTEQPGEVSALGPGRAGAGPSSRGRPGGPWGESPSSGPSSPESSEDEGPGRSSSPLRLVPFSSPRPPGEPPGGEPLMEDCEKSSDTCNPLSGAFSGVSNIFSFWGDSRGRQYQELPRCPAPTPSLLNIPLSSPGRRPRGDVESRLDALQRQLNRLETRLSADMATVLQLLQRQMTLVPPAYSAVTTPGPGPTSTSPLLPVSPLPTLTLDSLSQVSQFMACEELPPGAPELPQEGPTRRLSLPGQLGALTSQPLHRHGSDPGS", "assay": "(§1) Inhibition of human ERG expressed in CHO cells by whole cell patch clamp technique", "conditions": "for pIC50: human"}, "hERG (KCNH2)": {"target": "hERG (KCNH2) (Homo sapiens, UniProt Q12809)", "sequence (Q12809 whole entry)": "as above", "assay": "as §1", "conditions": "human"}, "[2]": {"conditions": "CHO cells that express human ERG"}},
  "data": [
    {"compound": "COc1ccc(C2CCN(CC[C@H]3CCOc4ccccc43)CC2)cc1OC", "values": [
      {"measurement": "pIC50", "setting": "[1]; cho", "value": 6.7}
    ]},
    {"compound": "CC[C@H]1OC(=O)[C@H](C)[C@@H](O[C@H]2C[C@@](C)(OC)[C@@H](O)[C@H](C)O2)[C@H](C)[C@@H](O[C@@H]2O[C@H](C)C[C@H](N(C)C)[C@H]2O)[C@](C)(OC)C[C@@H](C)C(=O)[C@H](C)[C@@H](O)[C@]1(C)O", "note": "[CLARITHROMYCIN]", "values": [
      {"measurement": "pIC50", "setting": "[1]; cho", "value": 4.23}
    ]},
    {"compound": "Oc1ccc(CCN2CCC(Nc3nc4ccccc4n3Cc3ccc(F)cc3)CC2)cc1", "note": "[DESMETHEYLASTEMIZOLE]", "values": [
      {"measurement": "IC50", "setting": "[1]", "value": 0.001, "unit": "µM"}
    ]},
    {"compound": "COc1c(N2CCNC(C)C2)c(F)cc2c(=O)c(C(=O)O)cn(C3CC3)c12", "note": "(configuration not stated) [GATIFLOXACIN]", "values": [
      {"measurement": "IC50", "setting": "[1]", "value": 129, "unit": "µM"}
    ]},
    {"compound": "O=C(OC1CC2CC3CC(C1)N2CC3O)c1c[nH]c2ccccc12", "note": "(configuration not stated) [MDL-74156]", "values": [
      {"measurement": "IC50", "setting": "[1]", "value": 5.89, "unit": "µM"}
    ]},
    {"compound": "CN(c1nccc(=O)[nH]1)C1CCN(c2nc3ccccc3n2Cc2ccc(F)cc2)CC1", "note": "[MIZOLASTINE]", "values": [
      {"measurement": "pIC50", "setting": "[1]; cho", "value": 6.36}
    ]},
    {"compound": "CN1CCC[C@H]1c1cccnc1", "note": "[NICOTINE]", "values": [
      {"measurement": "pIC50", "setting": "[1]; cho", "value": 3.61}
    ]},
    {"compound": "CCOC(=O)C1=C(C)NC(C)=C(C(=O)OC)C1c1cccc([N+](=O)[O-])c1", "note": "(configuration not stated) [NITRENDIPINE]", "values": [
      {"measurement": "IC50", "setting": "hERG (KCNH2); [2]", "value": 10, "unit": "µM"}
    ]},
    {"compound": "Cc1cc2c(s1)Nc1ccccc1N=C2N1CCN(C)CC1", "note": "[OLANZAPINE]", "values": [
      {"measurement": "pIC50", "setting": "[1]; cho", "value": 6.74}
    ]},
    {"compound": "C[C@@H]1CN(c2c(F)c(N)c3c(=O)c(C(=O)O)cn(C4CC4)c3c2F)C[C@H](C)N1", "note": "[SPARFLOXACIN]", "values": [
      {"measurement": "pIC50", "setting": "[1]; [2]", "value": 4.74}
    ]},
    {"compound": "COc1ccc(C2CCN(CC[C@H]3CCOc4ccccc43)CC2)cc1OC", "note": "[TERIKALANT]", "values": [
      {"measurement": "IC50", "setting": "hERG (KCNH2); cho", "value": 0.251, "unit": "µM"}
    ]},
    {"compound": "COc1ccc(C(=O)N2CCN(c3ccc4c(c3)CCC(=O)N4)CC2)cc1OC", "note": "[VESNARINONE]", "values": [
      {"measurement": "pIC50", "setting": "[1]; [2]", "value": 5.96}
    ]}
  ]
}
